According to publication PMC7215574, “Development of Thiazolidinones as Fungal Carbonic Anhydrase Inhibitors” (International Journal of Molecular Sciences, 2020):
pKi: −log10 of the molar value. Converted amounts (≈) assume the structure as drawn.

Tested on: T1, C. tropicalis 3 strains
T1 construct: 3 clinical isolates
Assay: microbe, parasite or virus in culture
Design: species or system clinical Candida isolates; broth microdilution antifungal MIC, visual growth inhibition, CLSI
Details: Candida tropicalis, 24 h, read-out: Tested Fungi (MIC Values μg/mL) / C. tropicalis 3 strains
Protocol: (§1) The in vitro antifungal activities were determined by the broth microdilution method with sabouraud dextrose broth (BBL Microbiology Systems, Cockeysville, MD, USA), as recommended by the by the CLSI [43]. Ninety-six-well polystyrene microtitre plates containing serial dilutions of each compound were inoculated with each microorganism to yield the appropriate density (1–5 × 10^3 cells/mL) in a 100-μL final volume. Each plate included (i) fungi without the addition of the compound, (ii) just the medium, and (iii) just the compound. Topical and systemic antifungal reference drugs, clotrimazole and fluconazole, were inserted in the experiment. The plates were incubated for 24 h at 35 °C. […] Three independent experiments were performed in triplicate. The antimicrobial activity of these thiazolidinones was evaluated versus 24 clinical Gram-positive (S. aureus and S. epidermidis) and Gram-negative (E. coli and Enterobacter spp.) microorganisms. The antifungal activity of these derivatives was then tested versus 16 clinical fungal isolates belonging to the most relevant Candida spp. (C. albicans, C. tropicalis, C. parapsilosis, C. sakè, and C. glabrata). Prior to testing, each isolate was cultured on a selective medium to ensure purity and optimal growth, as previously reported. The isolates were routinely identified by the morphological aspects of colonies and by biochemical identification. The used clinical isolates were collected from specimens of patients at the ‘Azienda Policlinico Umberto I’ (Sapienza University of Rome) and were obtained from hematology/oncology and surgery departments, which also included an intensive care unit. In particular, the samples were isolated from the upper and lower respiratory tract, blood, and indwelling venous catheters; the isolates were identified by conventional methodologies. Participating subjects gave their written informed consent for this study.

For `O=C(N/N=C1\SCC(=O)N1c1ccccc1Br)C(O)c1ccccc1` (stereo not drawn) [3g], which MIC is on record?
Its MIC is 8 to 32 µg/mL (≈ 19 to 76.1 µM).

For `O=C(N/N=C1\SCC(=O)N1c1cccc(Br)c1)C(O)c1ccccc1` (stereo not drawn) [3h], which MIC is on record?
Its MIC is 8 to 32 µg/mL (≈ 19 to 76.1 µM).

Which MIC does the source give for `CC1S/C(=N\NC(=O)C(O)c2ccccc2)N(c2cccc(F)c2)C1=O` (stereo not drawn) [4a] here?
The MIC was 8 to 32 µg/mL (≈ 21.4 to 85.7 µM).

With `CC1S/C(=N\NC(=O)C(O)c2ccccc2)N(c2ccc(F)cc2)C1=O` (stereo not drawn) [4b] as the compound, how does the MIC read?
Its MIC is 8 to 32 µg/mL (≈ 21.4 to 85.7 µM).

With `CC1S/C(=N\NC(=O)C(O)c2ccccc2)N(c2cccc(Cl)c2)C1=O` (stereo not drawn) [4c] as the compound, how does the MIC read?
The MIC was 8 to 32 µg/mL (≈ 20.5 to 82.1 µM).

With `CC1S/C(=N\NC(=O)C(O)c2ccccc2)N(c2ccc(Cl)cc2)C1=O` (stereo not drawn) [4d] as the compound, how does the MIC read?
The MIC was 8 to 32 µg/mL (≈ 20.5 to 82.1 µM).

Tested on: T2, C. albicans 5 strains
T2 construct: 5 clinical isolates
Assay: microbe, parasite or virus in culture
Design: species or system clinical Candida isolates; broth microdilution antifungal MIC, visual growth inhibition, CLSI
Details: Candida albicans, 24 h, read-out: Tested Fungi (MIC Values μg/mL) / C. albicans 5 strains
Protocol: as §1

With `O=C(N/N=C1\SCC(=O)N1c1ccccc1Br)C(O)c1ccccc1` (stereo not drawn) [3g] as the compound, how does the MIC read?
Its MIC is 8 to 16 µg/mL (≈ 19 to 38.1 µM).

For `O=C(N/N=C1\SCC(=O)N1c1cccc(Br)c1)C(O)c1ccccc1` (stereo not drawn) [3h], which MIC is on record?
The MIC was 8 to 16 µg/mL (≈ 19 to 38.1 µM).

With `CC1S/C(=N\NC(=O)C(O)c2ccccc2)N(c2cccc(F)c2)C1=O` (stereo not drawn) [4a] as the compound, how does the MIC read?
Its MIC is 16 to 32 µg/mL (≈ 42.8 to 85.7 µM).

Which MIC does the source give for `CC1S/C(=N\NC(=O)C(O)c2ccccc2)N(c2ccc(F)cc2)C1=O` (stereo not drawn) [4b] here?
The MIC was 16 to 32 µg/mL (≈ 42.8 to 85.7 µM).

For `CC1S/C(=N\NC(=O)C(O)c2ccccc2)N(c2cccc(Cl)c2)C1=O` (stereo not drawn) [4c], which MIC is on record?
The MIC was 16 to 32 µg/mL (≈ 41 to 82.1 µM).

With `CC1S/C(=N\NC(=O)C(O)c2ccccc2)N(c2ccc(Cl)cc2)C1=O` (stereo not drawn) [4d] as the compound, how does the MIC read?
The MIC was 4 to 16 µg/mL (≈ 10.3 to 41 µM).

Tested on: T3, C. glabrata 3 strains
T3 construct: 3 clinical isolates
Assay: microbe, parasite or virus in culture
Design: species or system clinical Candida isolates; broth microdilution antifungal MIC, visual growth inhibition, CLSI
Details: Nakaseomyces glabratus, 24 h, read-out: Tested Fungi (MIC Values μg/mL) / C. glabrata 3 strains
Protocol: as §1

With `O=C(N/N=C1\SCC(=O)N1c1ccccc1Br)C(O)c1ccccc1` (stereo not drawn) [3g] as the compound, how does the MIC read?
Its MIC is 8 to 32 µg/mL (≈ 19 to 76.1 µM).

Which MIC does the source give for `O=C(N/N=C1\SCC(=O)N1c1cccc(Br)c1)C(O)c1ccccc1` (stereo not drawn) [3h] here?
The MIC was 8 to 32 µg/mL (≈ 19 to 76.1 µM).

For `CC1S/C(=N\NC(=O)C(O)c2ccccc2)N(c2cccc(F)c2)C1=O` (stereo not drawn) [4a], which MIC is on record?
Its MIC is 8 to 32 µg/mL (≈ 21.4 to 85.7 µM).

Which MIC does the source give for `CC1S/C(=N\NC(=O)C(O)c2ccccc2)N(c2ccc(F)cc2)C1=O` (stereo not drawn) [4b] here?
Its MIC is 8 to 32 µg/mL (≈ 21.4 to 85.7 µM).

Which MIC does the source give for `CC1S/C(=N\NC(=O)C(O)c2ccccc2)N(c2cccc(Cl)c2)C1=O` (stereo not drawn) [4c] here?
Its MIC is 8 to 32 µg/mL (≈ 20.5 to 82.1 µM).

With `CC1S/C(=N\NC(=O)C(O)c2ccccc2)N(c2ccc(Cl)cc2)C1=O` (stereo not drawn) [4d] as the compound, how does the MIC read?
Its MIC is 8 to 32 µg/mL (≈ 20.5 to 82.1 µM).

Tested on: T4, Candida sake C. sakè 3 strains
T4 construct: 3 clinical isolates
Assay: microbe, parasite or virus in culture
Design: species or system clinical Candida isolates; broth microdilution antifungal MIC, visual growth inhibition, CLSI
Details: Fermentozyma sake, 24 h; read-out: Tested Fungi (MIC Values μg/mL) / C. sakè 3 strains
Protocol: as §1

Which MIC does the source give for `CC1S/C(=N\NC(=O)C(O)c2ccccc2)N(c2cccc(F)c2)C1=O` (stereo not drawn) [4a] here?
Its MIC is 4 to 8 µg/mL (≈ 10.7 to 21.4 µM).

For `CC1S/C(=N\NC(=O)C(O)c2ccccc2)N(c2ccc(F)cc2)C1=O` (stereo not drawn) [4b], which MIC is on record?
Its MIC is 4 to 8 µg/mL (≈ 10.7 to 21.4 µM).

With `CC1S/C(=N\NC(=O)C(O)c2ccccc2)N(c2cccc(Cl)c2)C1=O` (stereo not drawn) [4c] as the compound, how does the MIC read?
The MIC was 4 to 8 µg/mL (≈ 10.3 to 20.5 µM).

Which MIC does the source give for `CC1S/C(=N\NC(=O)C(O)c2ccccc2)N(c2ccc(Cl)cc2)C1=O` (stereo not drawn) [4d] here?
Its MIC is 4 to 8 µg/mL (≈ 10.3 to 20.5 µM).

Target: T5, CgNce103 (Nakaseomyces glabratus, UniProt Q6FTL6)
T5 construct: gene NCE103; recombinant, obtained in-house as previously reported; beta-class zinc enzyme
T5 sequence (Q6FTL6 1-219): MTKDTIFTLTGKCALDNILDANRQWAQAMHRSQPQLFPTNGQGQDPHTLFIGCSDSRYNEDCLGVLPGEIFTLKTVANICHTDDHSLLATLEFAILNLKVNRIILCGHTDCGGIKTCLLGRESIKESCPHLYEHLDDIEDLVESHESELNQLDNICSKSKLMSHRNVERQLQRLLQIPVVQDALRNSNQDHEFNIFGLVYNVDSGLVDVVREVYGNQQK
Assay: stopped-flow CO2 hydrase assay
Format: biochemical
Details: not given

With `O=C(N/N=C1\SCC(=O)N1c1ccccc1Br)C(O)c1ccccc1` (stereo not drawn) [3g] as the compound, how does the pKi read?
Its pKi is 4.99.

With `O=C(N/N=C1\SCC(=O)N1c1cccc(Br)c1)C(O)c1ccccc1` (stereo not drawn) [3h] as the compound, how does the pKi read?
The pKi was 6.09.

With `CC1S/C(=N\NC(=O)C(O)c2ccccc2)N(c2cccc(F)c2)C1=O` (stereo not drawn) [4a] as the compound, how does the pKi read?
Its pKi is 6.96.

With `CC1S/C(=N\NC(=O)C(O)c2ccccc2)N(c2ccc(F)cc2)C1=O` (stereo not drawn) [4b] as the compound, how does the pKi read?
The pKi was 6.32.

With `CC1S/C(=N\NC(=O)C(O)c2ccccc2)N(c2cccc(Cl)c2)C1=O` (stereo not drawn) [4c] as the compound, how does the pKi read?
Its pKi is 6.92.

Target: not listed separately
Assay: stopped-flow CO2 hydrase assay
Format: biochemical, Homo sapiens
Details: read-out: hCA I

With `O=C(N/N=C1\SCC(=O)N1c1ccccc1Br)C(O)c1ccccc1` (stereo not drawn) [3g] as the compound, how does the pKi read?
The pKi was less than 4.00.

With `CC1S/C(=N\NC(=O)C(O)c2ccccc2)N(c2cccc(F)c2)C1=O` (stereo not drawn) [4a] as the compound, how does the pKi read?
Its pKi is less than 4.00.

With `CC1S/C(=N\NC(=O)C(O)c2ccccc2)N(c2ccc(F)cc2)C1=O` (stereo not drawn) [4b] as the compound, how does the pKi read?
The pKi was less than 4.00.

With `CC1S/C(=N\NC(=O)C(O)c2ccccc2)N(c2cccc(Cl)c2)C1=O` (stereo not drawn) [4c] as the compound, how does the pKi read?
Its pKi is less than 4.00.

Tested on: T6, C. parapsilosis 2 strains
T6 construct: 2 clinical isolates
Assay: microbe, parasite or virus in culture
Design: species or system clinical Candida isolates; CLSI broth microdilution MIC, Sabouraud dextrose broth, 35 °C, visual complete growth inhibition
Details: Lodderomyces parapsilosis, 24 h, read-out: Tested Fungi (MIC Values μg/mL) / C. parapsilosis 2 strains
Protocol: as §1

With `O=C(N/N=C1\SCC(=O)N1c1ccccc1Br)C(O)c1ccccc1` (stereo not drawn) [3g] as the compound, how does the MIC read?
The MIC was 8 µg/mL (≈ 19 µM).

Which MIC does the source give for `O=C(N/N=C1\SCC(=O)N1c1cccc(Br)c1)C(O)c1ccccc1` (stereo not drawn) [3h] here?
The MIC was 8 µg/mL (≈ 19 µM).

Which MIC does the source give for `CC1S/C(=N\NC(=O)C(O)c2ccccc2)N(c2cccc(F)c2)C1=O` (stereo not drawn) [4a] here?
Its MIC is 8 µg/mL (≈ 21.4 µM).

For `CC1S/C(=N\NC(=O)C(O)c2ccccc2)N(c2ccc(F)cc2)C1=O` (stereo not drawn) [4b], which MIC is on record?
Its MIC is 8 µg/mL (≈ 21.4 µM).

Which MIC does the source give for `CC1S/C(=N\NC(=O)C(O)c2ccccc2)N(c2cccc(Cl)c2)C1=O` (stereo not drawn) [4c] here?
The MIC was 8 µg/mL (≈ 20.5 µM).

Which MIC does the source give for `CC1S/C(=N\NC(=O)C(O)c2ccccc2)N(c2ccc(Cl)cc2)C1=O` (stereo not drawn) [4d] here?
Its MIC is 8 µg/mL (≈ 20.5 µM).

Tested on: T4, Candida sake C. sakè 3 strains
Assay: microbe, parasite or virus in culture
Design: species or system clinical Candida isolates; CLSI broth microdilution MIC, Sabouraud dextrose broth, 35 °C, visual complete growth inhibition
Details: Fermentozyma sake, 24 h; read-out: Tested Fungi (MIC Values μg/mL) / C. sakè 3 strains
Remark: another data set of the same source
Protocol: as §1

With `O=C(N/N=C1\SCC(=O)N1c1ccccc1Br)C(O)c1ccccc1` (stereo not drawn) [3g] as the compound, how does the MIC read?
Its MIC is 16 µg/mL (≈ 38.1 µM).

Which MIC does the source give for `O=C(N/N=C1\SCC(=O)N1c1cccc(Br)c1)C(O)c1ccccc1` (stereo not drawn) [3h] here?
The MIC was 16 µg/mL (≈ 38.1 µM).

Target: T7, hCA II (Homo sapiens, UniProt P00918)
T7 construct: gene CA2; recombinant, obtained in-house as previously reported
Assay: stopped-flow CO2 hydrase assay
Format: biochemical
Details: not given
From the text: stopped-flow CO2 hydrase assay on hCA II

With `O=C(N/N=C1\SCC(=O)N1c1cccc(Br)c1)C(O)c1ccccc1` (stereo not drawn) [3h] as the compound, how does the pKi read?
Its pKi is 4.25.

Target: T8, hCA I (Homo sapiens, UniProt P00915)
T8 construct: gene CA1; recombinant, obtained in-house as previously reported
T8 sequence (P00915 2-261): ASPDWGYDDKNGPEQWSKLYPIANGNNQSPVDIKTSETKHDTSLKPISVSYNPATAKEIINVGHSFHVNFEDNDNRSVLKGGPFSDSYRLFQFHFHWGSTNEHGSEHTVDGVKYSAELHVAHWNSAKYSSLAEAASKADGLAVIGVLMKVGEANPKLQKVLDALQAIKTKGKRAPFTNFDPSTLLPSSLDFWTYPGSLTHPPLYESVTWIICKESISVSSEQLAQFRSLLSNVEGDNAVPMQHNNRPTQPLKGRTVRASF
Assay: stopped-flow CO2 hydrase assay
Format: biochemical
Details: not given
From the text: stopped-flow CO2 hydrase assay on hCA I

With `O=C(N/N=C1\SCC(=O)N1c1ccccc1Br)C(O)c1ccccc1` (stereo not drawn) [3g] as the compound, how does the pKi read?
The pKi was less than 4.00.

With `O=C(N/N=C1\SCC(=O)N1c1cccc(Br)c1)C(O)c1ccccc1` (stereo not drawn) [3h] as the compound, how does the pKi read?
The pKi was less than 4.00.

With `CC1S/C(=N\NC(=O)C(O)c2ccccc2)N(c2cccc(F)c2)C1=O` (stereo not drawn) [4a] as the compound, how does the pKi read?
Its pKi is less than 4.00.

With `CC1S/C(=N\NC(=O)C(O)c2ccccc2)N(c2ccc(F)cc2)C1=O` (stereo not drawn) [4b] as the compound, how does the pKi read?
The pKi was less than 4.00.

With `CC1S/C(=N\NC(=O)C(O)c2ccccc2)N(c2cccc(Cl)c2)C1=O` (stereo not drawn) [4c] as the compound, how does the pKi read?
Its pKi is less than 4.00.
